Laboratory results from patent publication US20020012620A1, “BACTERIAL LEACHING OF COPPER AND ZINC WITHOUT IRON LEACHING” (priority 1998, published 2002).
“And” between values parts separate entries of the source, which are not always exact repeats. Equal entries are not always repeated.

Tests used:
[1] = test system: Thiobacillus ferrooxidans; test: Fe^2+ oxidation by resting cells (oxygen consumption rate, Oxygraph); type: cell-based; conditions: for inhibition of Fe^2+ oxidation: pH 3
Description: For the resting cell experiments, cells from large scale growth were filtered through Whatman™ No. 1 filter paper under suction before centrifugation at 8000× g. The cells were washed in 0.1 M β-alanine-H2SO4 (pH 2.3) and suspended in the same buffer to a concentration of 50 mg wet cells per ml.
The rate of ferrous iron and sulfur oxidation by the resting cells was determined by the oxygen consumption rate (nmol O2/min) in a Gilson™ Oxygraph with a Clark™ oxygen electrode at 25° C. The reaction mixture in a total volume of 1.2 ml contained 10-100 μl cell suspension, 0.5 μmol FeSO4 or 0.1 ml elemental sulfur suspension (32 mg in 500 ppm Tween-80™) and 0.1 M β-alanine-H2SO4 at pH 3.0 (standard condition) or varying inhibitory concentrations of salts at pH 3.0, as described below. Specifically, the effect of standard biological oxidation inhibitors, sodium azide and sodium cyanide in 0.1 M β-alanine-H2SO4 at pH 3.0 was studied.

[2] = test system: Thiobacillus ferrooxidans; test: S^0 oxidation by resting cells (oxygen consumption rate, Oxygraph); type: cell-based
T. ferrooxidans [3] = test system: T. ferrooxidans
Description: (§1) Growth inhibition studies were carried out in a Micro-oxymax™ respirometer at Cominco Research in Trail, British Columbia, wherein the O2 and CO2 consumption (at 52 minute intervals) of cultures at 26° C. were monitored over time (45-50 hours). Each flask contained a total volume of 100 ml, comprised of 5 ml inoculum culture plus 95 ml HP medium with varying concentrations of inhibitors plus Fe^2+ or S^0 as growth substrate (33.3 g FeSO4.7H2O or 25 g sulfur per liter). In the S^0 medium, HP medium was supplemented with 18 mg FeSO4.7H2O per liter. A growth curve was generated from the monitored O2 and CO2 consumption rates over time, as described below.

T. thiooxidans [4] = test system: T. thiooxidans
Description: as §1

T. ferrooxidans [5] = type: cell-based, Thiobacillus ferrooxidans
Description: (§2) Bacterial leaching was performed in shake flask experiments with 250 ml Erlenmeyer™ flasks containing 95 ml of HP medium with and without inhibitors unless otherwise specified, 4 ml of inoculum (Fe^2+-grown T. ferrooxidans, S^0-grown T. thiooxidans or both) and 5 g of floatation tailings supplied by Cominco Research were used, as described below. The flasks were grown at 26° C. on a rotary shaker at 150 rpm for 14 days. At various time intervals, 5 ml samples were taken to determine the concentrations of dissolved zinc and iron in the leachate as well as the percentage of zinc and iron remaining in the precipitate (after filtration of the leachate).

T. thiooxidans [6] = test: Bacterial leaching of flotation tailings with T. thiooxidans; type: cell-based, Thiobacillus thiooxidans
Description: as §2

[7] = test system: T. ferrooxidans and T. thiooxidans
Description: as §2

[8] = test system: bioleaching of chalcopyrite (CuFeS2) and sphalerite mixture; type: cell-based
Description: as §2

[9] = test system: bacterial leaching of a complex sulfide ore; test: Bacterial leaching of a complex sulfide ore from the Flin Flon mine; type: cell-based, Thiobacillus thiooxidans SM-7
Description: In this embodiment of the invention, bacterial strains Thiobacillus ferrooxidans SM-4 and Thiobacillus thiooxidans SM-6 (FIGS. 1, 3 and 4 and Table 2) or SM-7 (Table 5) were used. Specifically, T. ferrooxidans was grown on Fe^2+ or S^0 while T. thiooxidans was grown only on sulfur. HP medium, described in Suzuki et al, 1990, Appl Environ Microbiol 56:1620-1626, consisting of: 0.4 g (NH4)2SO4, 0.1 g K2HPO4, 0.4 g MgSO4.7H2O per liter, adjusted to pH 2.3 with H2SO4 was used for growth of bacteria on Fe^2+, for growth in a Micro-oxymax™ respirometer (both Fe^2+ and S^0 growth), and for mineral leaching experiments, as described below. For growth on Fe^2+, 33.3 g FeSO4.7H2O per liter (pH 2.3, filter-sterilized) was added to the above-described HP medium. Cultures were grown in shake flasks (100 ml) with 10% inoculum (v/v) in 250 ml Erlenmeyer™ flasks at 25° C. at 120 rpm for 24 hours. It is of note that for large scale growth, medium volume and flask size were increased.
. In fact, the highest level of Cu leaching using this ore is nearly five times greater than previously reported values in the absence of additional anions (Lizama and Suzuki, 1988, Biotechnol Bioeng 32: 110-116). […] That is, copper and zinc can be recovered from a complex ore without the need for separation simply by replacing the media following completion of copper leaching because of this lag time.

[10] = Acidithiobacillus ferrooxidans, pH 3, read-out: inhibition of Fe^2+ oxidation
[11] = Acidithiobacillus ferrooxidans, pH 3, read-out: inhibition of S^0 oxidation

In the case of `[N-]=[N+]=[N-]` [sodium azide, reference compound], the inhibition at 10 µM [1, 10] is reported as 90%, the inhibition at 50 µM [1, 10] is reported as 95% and the inhibition at 10 µM [2, 11] is reported as 35%. It also gave an inhibition at 50 µM [2, 11] of 90%.
In the case of potassium phosphate, the “inhibition of Fe^2+ oxidation” value [1] is reported as 60%, the “Fe^2+ oxidation during growth” value (T. ferrooxidans [3]) is reported as “inhibited” and the “S^0 oxidation during growth” value (T. thiooxidans [4]) is reported as “stimulated”. For the same compound, the “reduction in Zn leaching” value (T. ferrooxidans [5]) was 50%, the Fe leaching (T. thiooxidans [6]) was “strongly inhibited” and the Fe leaching [7] was “no Fe leaching”. The “inhibition of Fe leaching relative to Zn leaching” value [7] was “most effective inhibitor of Fe leaching without inhibiting Zn leaching extensively”, the “extraction of Zn” value [8] was “slightly reduced” and the iron oxidation [8] was “reduced”. For the same compound, the Cu leaching [9] was “stimulation” and the Zn leaching [9] was “stimulation”.
In the case of potassium nitrate, the “inhibition of Fe^2+ oxidation” value [1] is reported as 90% and 100%, the Fe leaching (T. ferrooxidans [5]) is reported as “reduced the Fe leaching similar to phosphate” and the Zn leaching (T. ferrooxidans [5]) is reported as “considerably inhibited”. For the same compound, the Fe leaching (T. thiooxidans [6]) was “reduced Fe leaching at high concentrations, albeit to a much smaller degree”.
In the case of potassium chloride, the “inhibition of Fe^2+ oxidation” value [1] is reported as 30% and 40%, the “inhibition of S^0 oxidation” value ([2]; pH 3) is reported as 10% and the “Fe^2+ oxidation during growth” value (T. ferrooxidans [3]) is reported as “inhibited”. The “S^0 oxidation during growth” value (T. thiooxidans [4]) was “stimulated”, the Fe leaching (T. thiooxidans [6]) was “reduced Fe leaching at high concentrations, albeit to a much smaller degree” and the “extraction of Zn” value [8] was “stimulated”. The Cu leaching [9] was “stimulation” and the Zn leaching [9] was “stimulation”.
